The values below come from patent EP0442958B1, “PHARMACEUTICAL COMPOSITION FOR OPHTHALMIC USE COMPRISING A WATER SOLUBLE ACID ADDITION SALT OF IBOPAMINE” (ZAMBON GROUP S.p.A., priority 1988, dated 1990).

Structures can show the parent of a compound that is named as a salt.

Data set [1] is described as follows: Stability of aqueous ibopamine solutions (ibopamine titer). The format is physicochemical. Conditions: aqueous solutions buffered at pH 4.5, room temperature.
For data set [2] the following is noted: well known, WO 86/03970; cited from earlier work.

In the case of `CNCCc1ccc(OC(=O)C(C)C)c(OC(=O)C(C)C)c1` [ibopamine hydrochloride, Ibopamine hydrochloride], the “period for which ibopamine titer remains substantially unchanged” value in data set [1] fell in the range of 20 to 25 days.
In the case of `CNCCc1ccc(OC(=O)C(C)C)c(OC(=O)C(C)C)c1` [ibopamine, epinine 3,4-0-diisobutyrate], in data set [2], the mydriatic activity result is “endowed with mydriatic activity”.
